Reference: patent publication US9650339B2, “Inhibitors of histone demethylases” (Gilead Sciences, Inc., priority 2013, dated 2017)

Experiments:
KDM4C (JMJD2C) = molecular target: T1, KDM4C (JMJD2C) (Homo sapiens, UniProt Q9H3R0); experiment: Histone lysine demethylase AlphaLISA assay, KDM4C; type: biochemical; settings: read-out: KDM4C HDME Inhibition IC50
T1 sequence (Q9H3R0 1-349): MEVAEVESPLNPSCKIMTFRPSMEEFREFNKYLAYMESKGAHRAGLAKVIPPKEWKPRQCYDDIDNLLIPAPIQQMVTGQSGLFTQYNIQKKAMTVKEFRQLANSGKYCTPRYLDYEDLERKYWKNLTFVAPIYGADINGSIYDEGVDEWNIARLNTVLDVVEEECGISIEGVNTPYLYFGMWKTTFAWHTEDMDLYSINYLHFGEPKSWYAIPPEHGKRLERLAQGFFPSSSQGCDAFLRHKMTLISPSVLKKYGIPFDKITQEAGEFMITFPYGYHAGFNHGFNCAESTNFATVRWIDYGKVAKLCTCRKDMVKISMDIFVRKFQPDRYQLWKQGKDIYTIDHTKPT
Summary of the method: (§1)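 Enzyme 10 min pre-incubation; + compound (3% DMSO soln) 10 min; + biotin-H3 methyl-Lys peptide, 25 μM L-Asc, 10 μM α-KG, RT. Read: AlphaLISA acceptor beads, then streptavidin donor beads, RT, dark.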

MCF7 cells = experiment: Cell proliferation assay MCF7; type: cell-based; settings: MCF7 human breast cancer cells; 120 hours; ATPlite 1 Step
Summary of the method: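 Cells grown 24 h in DMEM GlutaMAX/10% FBS, then exposed to compounds in duplicate (≤0.5% DMSO) for 120 h. Viability read as ATP luminescence (ATPlite 1 Step). Seeding set to reach ~90% confluence at harvest.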

KDM6A (UTX) = KDM6A (UTX) (Homo sapiens, UniProt O15550); experiment: Histone lysine demethylase AlphaLISA assay, KDM6A; type: biochemical; settings: read-out: KDM6A HDME Inhibition IC50
Sequence of KDM6A (UTX) (O15550 919-1401): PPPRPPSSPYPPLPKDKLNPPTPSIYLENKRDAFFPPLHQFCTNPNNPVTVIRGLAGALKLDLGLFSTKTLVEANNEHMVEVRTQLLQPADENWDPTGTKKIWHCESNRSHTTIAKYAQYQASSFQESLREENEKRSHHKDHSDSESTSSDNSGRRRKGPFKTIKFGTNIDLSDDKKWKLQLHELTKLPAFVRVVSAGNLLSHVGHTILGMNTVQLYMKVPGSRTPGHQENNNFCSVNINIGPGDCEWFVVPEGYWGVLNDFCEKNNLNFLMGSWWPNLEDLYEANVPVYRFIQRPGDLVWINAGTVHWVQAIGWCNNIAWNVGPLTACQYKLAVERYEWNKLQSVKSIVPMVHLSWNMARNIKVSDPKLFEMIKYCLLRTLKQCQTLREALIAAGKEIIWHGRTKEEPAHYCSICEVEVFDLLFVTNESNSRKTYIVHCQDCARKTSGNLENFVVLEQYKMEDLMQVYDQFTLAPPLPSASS
Summary of the method: as §1

H3K4me3 mark = experiment: Histone lysine demethylase immunofluorescence assay, non-transfected U2OS cells; type: cell-based; settings: Homo sapiens, staining of the H3K4me3 mark, 20 hours incubation with compound
Summary of the method: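 Non-transfected U2OS cells incubated with compounds 20 h in DMEM/5% FBS. Fixed cells immunostained for H3K4me3 with Hoechst counterstain and imaged by high-throughput microscopy. IC50 based on average cellular H3K4me3 staining.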

KDM5C (JARID1C) = molecular target: T2, KDM5C (JARID1C) (Homo sapiens, UniProt P41229); experiment: Histone lysine demethylase AlphaLISA assay, KDM5C; type: biochemical; settings: read-out: KDM5C HDME Inhibition IC50
T2 construct: 2-1560; purchased BPS; host or cells: Bac (baculovirus system)
T2 sequence (P41229 2-1560): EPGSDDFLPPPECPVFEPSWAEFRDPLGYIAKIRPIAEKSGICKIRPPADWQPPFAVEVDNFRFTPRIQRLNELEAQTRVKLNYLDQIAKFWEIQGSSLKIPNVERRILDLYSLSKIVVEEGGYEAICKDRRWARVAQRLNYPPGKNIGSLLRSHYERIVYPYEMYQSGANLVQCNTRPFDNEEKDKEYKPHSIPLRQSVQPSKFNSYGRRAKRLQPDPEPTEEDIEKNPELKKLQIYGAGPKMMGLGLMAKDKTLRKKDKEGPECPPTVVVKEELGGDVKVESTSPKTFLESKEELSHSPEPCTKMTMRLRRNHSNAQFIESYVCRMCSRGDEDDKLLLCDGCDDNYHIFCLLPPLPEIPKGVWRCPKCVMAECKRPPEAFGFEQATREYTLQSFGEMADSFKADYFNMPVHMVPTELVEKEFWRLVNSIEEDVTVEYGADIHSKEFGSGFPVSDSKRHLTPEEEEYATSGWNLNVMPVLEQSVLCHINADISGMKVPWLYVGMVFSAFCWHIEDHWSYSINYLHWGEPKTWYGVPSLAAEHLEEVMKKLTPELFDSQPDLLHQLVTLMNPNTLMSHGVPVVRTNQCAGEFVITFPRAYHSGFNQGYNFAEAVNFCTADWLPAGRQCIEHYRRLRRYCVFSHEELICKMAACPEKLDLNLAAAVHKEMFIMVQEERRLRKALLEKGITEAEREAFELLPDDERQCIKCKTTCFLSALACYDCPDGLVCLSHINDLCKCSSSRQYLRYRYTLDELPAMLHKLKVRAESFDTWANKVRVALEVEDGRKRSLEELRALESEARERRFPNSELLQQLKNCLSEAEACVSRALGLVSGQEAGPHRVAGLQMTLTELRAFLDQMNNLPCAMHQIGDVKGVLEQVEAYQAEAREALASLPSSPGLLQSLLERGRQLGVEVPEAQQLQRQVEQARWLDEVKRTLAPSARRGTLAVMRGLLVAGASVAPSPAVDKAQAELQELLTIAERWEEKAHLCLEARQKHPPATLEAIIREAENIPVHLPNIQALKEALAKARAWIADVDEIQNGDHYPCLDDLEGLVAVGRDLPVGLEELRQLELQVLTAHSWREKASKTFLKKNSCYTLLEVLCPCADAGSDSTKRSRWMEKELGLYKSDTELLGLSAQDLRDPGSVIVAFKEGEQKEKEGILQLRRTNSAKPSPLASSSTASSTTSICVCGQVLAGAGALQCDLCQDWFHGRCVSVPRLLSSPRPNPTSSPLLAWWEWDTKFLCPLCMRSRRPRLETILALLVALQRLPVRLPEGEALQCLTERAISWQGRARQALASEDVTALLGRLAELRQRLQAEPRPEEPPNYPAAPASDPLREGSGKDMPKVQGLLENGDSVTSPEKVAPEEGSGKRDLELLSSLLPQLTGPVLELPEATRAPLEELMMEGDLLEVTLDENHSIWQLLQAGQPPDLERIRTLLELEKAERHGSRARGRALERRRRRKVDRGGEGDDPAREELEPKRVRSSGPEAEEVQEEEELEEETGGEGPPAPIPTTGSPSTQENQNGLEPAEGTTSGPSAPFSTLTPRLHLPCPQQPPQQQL
Summary of the method: as §1

KDM2B (FBXL10) = molecular target: T3, KDM2B (FBXL10) (Homo sapiens, UniProt Q8NHM5); experiment: Histone lysine demethylase AlphaLISA assay, KDM2B; type: biochemical; settings: read-out: KDM2B HDME Inhibition IC50
T3 sequence (Q8NHM5 1-650): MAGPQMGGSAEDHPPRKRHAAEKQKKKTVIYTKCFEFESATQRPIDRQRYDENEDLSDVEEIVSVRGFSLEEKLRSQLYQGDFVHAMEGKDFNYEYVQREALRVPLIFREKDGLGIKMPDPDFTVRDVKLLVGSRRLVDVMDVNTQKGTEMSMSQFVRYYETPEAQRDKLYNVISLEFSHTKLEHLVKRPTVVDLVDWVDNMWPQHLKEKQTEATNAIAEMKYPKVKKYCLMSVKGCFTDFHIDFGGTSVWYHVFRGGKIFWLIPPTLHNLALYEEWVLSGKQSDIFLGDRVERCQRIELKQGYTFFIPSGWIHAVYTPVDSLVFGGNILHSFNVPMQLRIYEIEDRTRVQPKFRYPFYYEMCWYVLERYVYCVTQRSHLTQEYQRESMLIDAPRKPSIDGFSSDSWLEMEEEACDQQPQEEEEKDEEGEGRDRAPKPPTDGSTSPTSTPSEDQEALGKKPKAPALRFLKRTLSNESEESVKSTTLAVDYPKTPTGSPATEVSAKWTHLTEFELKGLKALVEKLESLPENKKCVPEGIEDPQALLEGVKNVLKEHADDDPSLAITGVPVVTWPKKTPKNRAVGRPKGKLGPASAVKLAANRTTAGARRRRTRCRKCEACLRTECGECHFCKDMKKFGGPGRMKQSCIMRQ
Summary of the method: as §1

IC50 (KDM4C (JMJD2C)) | EC50 (MCF7 cells) | IC50 (KDM6A (UTX)) | IC50 (H3K4me3 mark) | IC50 (KDM5C (JARID1C)) | IC50 (KDM2B (FBXL10)) | SMILES
0.25 to 2.5 µM | < 0.25 µM | > 2.5 µM | < 0.25 µM | – | – | CCN(CC)CCCCNCc1cc(C2NCCCN2C)ccn1 (stereo not drawn) [Compound 68, [4-(diethylamino)butyl]({[4-(1-methyl-1,3-diazinan-2-yl)pyridin-2-yl]methyl})amine]
0.25 to 2.5 µM | – | > 2.5 µM | – | < 0.25 µM | – | COC(=O)CNCc1cc(/C=N/C2CC2)ccn1 [Compound 59, methyl 2-[({4-[N-cyclopropyl-carboximidoyl]pyridin-2-yl}methyl)amino]-acetate]
0.25 to 2.5 µM | – | – | 0.25 to 2.5 µM | < 0.25 µM | > 2.5 µM | COc1ccccc1CN1CCC(NC(=O)CNCc2cc(CNC3CC3)ccn2)CC1 [Compound 20, 2-[({4-[(cyclopropylamino)-methyl]pyridin-2-yl}methyl)amino]-N-{1-[(2-methoxyphenyl)methyl]-piperidin-4-yl}acetamide]
> 2.5 µM | < 0.25 µM | > 2.5 µM | – | – | > 2.5 µM | CN(C)CCCCNCc1cc(CN)ccn1 [Compound 2, [2-({[4-(dimethylamino)butyl]-amino}methyl)pyridin-4-yl]methanamine]
> 2.5 µM | – | > 2.5 µM | – | – | > 2.5 µM | CN(C)CCNCc1ccnc(CNCCCN(C)Cc2ccccc2)c1 [Compound 18, benzyl[3-({[4-({[2-(dimethylamino)ethyl]-amino}methyl)pyridin-2-yl]methyl}-amino)propyl]-methylamine]
0.25 to 2.5 µM | – | > 2.5 µM | – | 0.25 to 2.5 µM | – | O=Cc1ccnc(CNCC(=O)NC2CCN(Cc3ccccc3)C2)c1 (stereo not drawn) [Compound 113, N-(1-benzylpyrrolidin-3-yl)-2-{[(4-formylpyridin-2-yl)methyl]amino}-acetamide]
0.25 to 2.5 µM | – | > 2.5 µM | – | – | – | O=Cc1ccnc(CNCCCCN(Cc2ccccc2)C2CC2)c1 [Compound 109, 2-[({4-[benzyl-(cyclopropyl)amino]-butyl}amino)methyl]-pyridine-4-carbaldehyde]
> 2.5 µM | < 0.25 µM | > 2.5 µM | – | – | – | CCN(CCN(C)C)C(=O)CN(Cc1cc(CNC(=O)C(F)(F)F)ccn1)C(=O)C(F)(F)F [Compound 26, N-[(2-{[N-({[2-(dimethylamino)ethyl]-(ethyl)carbamoyl}-methyl)-2,2,2-trifluoroacetamido]-methyl}pyridin-4-yl)methyl]-2,2,2-trifIuoroacetamide]
> 2.5 µM | – | > 2.5 µM | – | > 2.5 µM | > 2.5 µM | COCCNCc1ccnc(CNCCCN(C)Cc2ccccc2)c1 [Compound 19, benzyl(3-{[(4-{[(2-methoxyethyl)amino]-methyl}pyridin-2-yl)methyl]amino}-propyl)methylamine]
